Results reported in ChEMBL document CHEMBL5356958, “Discovery of a Highly Potent and Selective MYOF Inhibitor with Improved Water Solubility for the Treatment of Gastric Cancer” (J Med Chem, 2023).
pIC50, pKd: −log10 of the molar value. Values after ≈ are worked out from the molar mass of the structure shown.

Experiments:
MGC-803 = test: Antiproliferative activity against human MGC-803 cells incubated for 48 hrs by SRB assay; format: functional, cell-based; conditions: MGC-803, 48 h
MKN-45 [1] = test: Antiproliferative activity against human MKN-45 cells incubated for 48 hrs by SRB assay; format: functional, cell-based; conditions: MKN-45, 48 h
MKN-45 [2] = test: Antitumor activity against human MKN-45 cells xenografted in BALB/c mouse assessed as tumor growth inhibition at 15 mg/kg/day, ip measured every 3 days for 21 days; format: functional; conditions: MKN-45, 504 h, time 21 day, read-out: TGI
hERG (KCNH2) = hERG (KCNH2) (Homo sapiens, UniProt Q12809); test: Inhibition of human ERG at 3 uM relative to control; format: toxicity
Chain of hERG (KCNH2) (Q12809 whole entry): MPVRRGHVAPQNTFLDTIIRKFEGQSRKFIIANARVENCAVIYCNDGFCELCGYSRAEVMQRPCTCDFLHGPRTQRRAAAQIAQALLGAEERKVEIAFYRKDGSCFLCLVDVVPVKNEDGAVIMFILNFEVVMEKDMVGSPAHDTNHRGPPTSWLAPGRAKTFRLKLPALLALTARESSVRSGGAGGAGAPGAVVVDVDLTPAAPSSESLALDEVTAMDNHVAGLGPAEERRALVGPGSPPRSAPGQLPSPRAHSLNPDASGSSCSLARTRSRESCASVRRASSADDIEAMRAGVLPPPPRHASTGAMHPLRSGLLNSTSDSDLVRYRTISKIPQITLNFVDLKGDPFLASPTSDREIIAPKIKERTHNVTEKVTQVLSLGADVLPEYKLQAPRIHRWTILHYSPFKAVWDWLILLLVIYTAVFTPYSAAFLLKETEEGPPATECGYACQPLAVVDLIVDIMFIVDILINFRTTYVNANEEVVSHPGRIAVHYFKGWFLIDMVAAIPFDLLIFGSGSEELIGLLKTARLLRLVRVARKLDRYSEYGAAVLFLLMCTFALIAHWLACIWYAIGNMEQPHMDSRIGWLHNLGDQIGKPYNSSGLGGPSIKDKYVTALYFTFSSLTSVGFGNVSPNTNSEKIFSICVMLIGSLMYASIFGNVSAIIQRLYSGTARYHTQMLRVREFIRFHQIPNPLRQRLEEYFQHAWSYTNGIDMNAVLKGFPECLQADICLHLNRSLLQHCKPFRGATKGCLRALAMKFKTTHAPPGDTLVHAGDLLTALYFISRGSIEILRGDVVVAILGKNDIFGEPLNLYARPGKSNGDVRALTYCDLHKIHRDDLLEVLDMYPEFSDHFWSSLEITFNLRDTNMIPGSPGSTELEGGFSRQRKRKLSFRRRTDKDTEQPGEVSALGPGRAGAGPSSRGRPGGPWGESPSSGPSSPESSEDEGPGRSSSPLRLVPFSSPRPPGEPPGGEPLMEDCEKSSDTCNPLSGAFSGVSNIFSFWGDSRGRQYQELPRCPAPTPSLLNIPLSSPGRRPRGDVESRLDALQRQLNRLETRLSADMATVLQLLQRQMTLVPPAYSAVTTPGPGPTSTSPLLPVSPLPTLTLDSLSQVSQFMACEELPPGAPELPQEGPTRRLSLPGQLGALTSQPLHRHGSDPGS

[3] = Aqueous solubility of compound in PBS at pH 2; format: physicochemical
[4] = Aqueous solubility of compound in PBS at pH 7.4; format: physicochemical
[5] = Aqueous solubility of compound in PBS at pH 9; format: physicochemical
Myoferlin = Myoferlin (Homo sapiens, UniProt Q9NZM1); test: Binding affinity to human MYOF C2D by SPR method
Chain of Myoferlin (Q9NZM1 whole entry): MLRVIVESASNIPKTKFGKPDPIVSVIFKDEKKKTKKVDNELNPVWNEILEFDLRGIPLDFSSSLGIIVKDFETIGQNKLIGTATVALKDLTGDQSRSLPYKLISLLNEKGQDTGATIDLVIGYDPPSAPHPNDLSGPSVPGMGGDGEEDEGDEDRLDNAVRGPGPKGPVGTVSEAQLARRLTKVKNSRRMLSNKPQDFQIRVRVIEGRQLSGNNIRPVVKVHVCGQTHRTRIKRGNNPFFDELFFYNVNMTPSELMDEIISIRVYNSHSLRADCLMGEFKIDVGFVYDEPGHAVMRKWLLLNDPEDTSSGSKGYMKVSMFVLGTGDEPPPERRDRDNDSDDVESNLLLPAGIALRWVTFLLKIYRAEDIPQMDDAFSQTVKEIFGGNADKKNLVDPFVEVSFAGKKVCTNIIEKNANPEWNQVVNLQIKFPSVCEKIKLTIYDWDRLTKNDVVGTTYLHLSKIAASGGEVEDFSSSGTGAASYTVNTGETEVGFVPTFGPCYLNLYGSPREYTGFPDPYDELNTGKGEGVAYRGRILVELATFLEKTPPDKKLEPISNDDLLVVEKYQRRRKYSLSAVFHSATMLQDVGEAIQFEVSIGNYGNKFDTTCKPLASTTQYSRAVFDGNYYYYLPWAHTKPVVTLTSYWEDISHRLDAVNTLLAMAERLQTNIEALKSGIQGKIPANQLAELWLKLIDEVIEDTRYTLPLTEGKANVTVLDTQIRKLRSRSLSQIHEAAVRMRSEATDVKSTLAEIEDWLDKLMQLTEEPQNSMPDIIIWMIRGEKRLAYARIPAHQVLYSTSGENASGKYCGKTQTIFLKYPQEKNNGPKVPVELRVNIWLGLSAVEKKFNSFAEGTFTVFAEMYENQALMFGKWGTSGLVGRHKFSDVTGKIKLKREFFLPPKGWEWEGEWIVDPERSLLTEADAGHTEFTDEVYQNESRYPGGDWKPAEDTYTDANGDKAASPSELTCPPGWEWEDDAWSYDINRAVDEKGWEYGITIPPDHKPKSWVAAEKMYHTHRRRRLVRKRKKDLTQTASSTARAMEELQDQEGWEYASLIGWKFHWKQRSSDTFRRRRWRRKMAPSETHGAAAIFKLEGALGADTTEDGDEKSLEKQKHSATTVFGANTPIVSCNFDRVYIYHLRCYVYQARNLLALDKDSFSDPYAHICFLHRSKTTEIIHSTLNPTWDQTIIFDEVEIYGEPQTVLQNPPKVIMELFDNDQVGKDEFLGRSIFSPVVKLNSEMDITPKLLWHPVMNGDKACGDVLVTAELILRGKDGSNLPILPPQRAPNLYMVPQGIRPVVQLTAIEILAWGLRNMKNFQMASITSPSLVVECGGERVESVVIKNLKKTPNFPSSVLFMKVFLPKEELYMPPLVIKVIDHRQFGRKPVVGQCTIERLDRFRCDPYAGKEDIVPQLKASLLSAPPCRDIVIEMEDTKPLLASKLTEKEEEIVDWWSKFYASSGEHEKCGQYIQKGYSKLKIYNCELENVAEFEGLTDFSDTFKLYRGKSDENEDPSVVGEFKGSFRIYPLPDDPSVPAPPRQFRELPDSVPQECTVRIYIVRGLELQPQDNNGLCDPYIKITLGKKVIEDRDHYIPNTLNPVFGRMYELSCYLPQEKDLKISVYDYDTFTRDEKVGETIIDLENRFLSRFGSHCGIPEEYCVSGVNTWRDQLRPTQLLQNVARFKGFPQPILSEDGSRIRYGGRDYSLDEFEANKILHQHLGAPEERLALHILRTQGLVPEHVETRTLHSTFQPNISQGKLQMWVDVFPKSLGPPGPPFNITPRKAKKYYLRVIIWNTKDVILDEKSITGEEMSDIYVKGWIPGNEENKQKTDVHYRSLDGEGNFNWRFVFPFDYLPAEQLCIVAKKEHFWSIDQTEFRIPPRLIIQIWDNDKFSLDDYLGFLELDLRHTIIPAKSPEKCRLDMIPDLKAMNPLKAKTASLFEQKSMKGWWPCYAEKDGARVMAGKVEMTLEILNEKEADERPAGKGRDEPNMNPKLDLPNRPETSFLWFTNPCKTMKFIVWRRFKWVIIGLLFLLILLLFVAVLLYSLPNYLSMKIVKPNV

MKN-45 [6] = test: Antitumor activity against human MKN-45 cells xenografted in BALB/c mouse assessed as tumor growth inhibition at 30 mg/kg/day, ip measured every 3 days for 21 days; format: functional; conditions: MKN-45, 504 h, time 21 day, read-out: TGI

CCc1nc(-c2ccc(OC)nc2)n(-c2cccc(C(=O)NCCCCn3nccn3)c2)n1
pIC50 (MGC-803): 5.10 | pIC50 (MKN-45 [1]): 5.56

O=c1[nH]cc(F)c(=O)[nH]1 [FLUOROURACIL]
inhibition in vivo at 15 mg/kg/day (MKN-45 [2]): 39.2%

CCCc1ccc(-c2nc(CC)nn2-c2cccc(C(=O)NCCCCn3nccn3)c2)cc1
pIC50 (MGC-803): 5.39 | pIC50 (MKN-45 [1]): 5.71

COc1cc(N)c(Cl)cc1C(=O)NC1CCN(CCCOc2ccc(F)cc2)CC1OC (stereo not drawn) [CISAPRIDE]
inhibition at 3 µM (hERG (KCNH2)): 107%

CCc1nc(-c2ccc(OC)cc2)n(-c2cccc(C(=O)NCCCCn3cnnn3)c2)n1
pIC50 (MGC-803): < 5.00 | pIC50 (MKN-45 [1]): < 5.00

CCc1nc(-c2ccccc2)n(-c2cccc(C(=O)NCCCCn3nccn3)c2)n1
pIC50 (MGC-803): 5.17 | pIC50 (MKN-45 [1]): 5.51

CCc1nc(-c2ccc(C(F)(F)F)cc2)n(-c2cccc(C(=O)NCCCCn3nccn3)c2)n1
pIC50 (MGC-803): 5.50 | pIC50 (MKN-45 [1]): 5.57

CCc1nc(-c2ccc(OC)cc2)n(-c2cccc(C(=O)NCCCCn3cncn3)c2)n1
pIC50 (MGC-803): < 5.00 | pIC50 (MKN-45 [1]): < 5.00

CCc1nc(-c2ccc(OC)cc2)n(-c2cccc(C(=O)NCCCCn3cc(Br)cn3)c2)n1
pIC50 (MGC-803): 5.36 | pIC50 (MKN-45 [1]): 5.35

CCc1nc(-c2ccc(OC)cc2)n(-c2cccc(C(=O)NCCCCc3cccs3)c2)n1
pIC50 (MGC-803): 6.28 | pIC50 (MKN-45 [1]): 6.12

CCc1nc(-c2ccc(OC)cc2)n(-c2cccc(C(=O)NCCCCn3ccnc3)c2)n1
pIC50 (MGC-803): < 5.00 | pIC50 (MKN-45 [1]): < 5.00

CCc1nc(-c2ccc(OC)cc2)n(-c2cccc(C(=O)NCCCCc3ccncc3)c2)n1
pIC50 (MGC-803): < 5.00 | pIC50 (MKN-45 [1]): < 5.00

CCc1nc(-c2ccc(Br)cc2)n(-c2cccc(C(=O)NCCCCn3nccn3)c2)n1
pIC50 (MGC-803): 4.96 | pIC50 (MKN-45 [1]): < 5.00

CCc1nc(-c2ccc(OC)cc2)n(-c2cccc(C(=O)NCCCn3nccn3)c2)n1
pIC50 (MGC-803): < 5.00 | pIC50 (MKN-45 [1]): < 5.00

CCc1nc(-c2cccc(OC)c2)n(-c2cccc(C(=O)NCCCCn3nccn3)c2)n1
pIC50 (MGC-803): 5.14 | pIC50 (MKN-45 [1]): 5.04

CCc1nc(-c2ncc(OC)cn2)n(-c2cccc(C(=O)NCCCCn3nccn3)c2)n1
pIC50 (MGC-803): 6.25 | pIC50 (MKN-45 [1]): 6.30

CCc1nc(-c2ccc(OC)cc2)n(-c2cccc(C(=O)NCCCCn3cc(Br)nn3)c2)n1
pIC50 (MGC-803): < 5.00 | pIC50 (MKN-45 [1]): < 5.00

CCc1nc(-c2ccc(OC)cc2)n(-c2cccc(C(=O)NCCCCN3CCCCC3)c2)n1
pIC50 (MGC-803): < 5.00 | pIC50 (MKN-45 [1]): < 5.00

CCc1nc(-c2ccc(OC)cc2)n(-c2cccc(C(=O)NCCCCCCn3nccn3)c2)n1
pIC50 (MGC-803): < 5.00 | pIC50 (MKN-45 [1]): 5.02

CCc1nc(-c2ccc(OC)cc2)n(-c2cccc(C(=O)NCCCCCn3nccn3)c2)n1
pIC50 (MGC-803): 5.67 | pIC50 (MKN-45 [1]): 5.18

CCc1nc(-c2ccc(OC)cn2)n(-c2cccc(C(=O)NCCCCn3nccn3)c2)n1
pIC50 (MGC-803): 5.77 | pIC50 (MKN-45 [1]): 6.60

CCc1nc(-c2ccc(OC)cc2)n(-c2cccc(C(=O)NCCCCn3cc(F)cn3)c2)n1
pIC50 (MGC-803): 4.97 | pIC50 (MKN-45 [1]): 5.23

CCc1nc(-c2ccc(OC)cc2)n(-c2cccc(C(=O)NCCCCc3ccccn3)c2)n1
pIC50 (MGC-803): 5.49 | pIC50 (MKN-45 [1]): < 5.00

CCc1nc(-c2ccc(OC)cc2)n(-c2cccc(C(=O)NCCCCn3nc(Br)c(Br)n3)c2)n1
pIC50 (MGC-803): 5.01 | pIC50 (MKN-45 [1]): < 5.00

CCc1nc(-c2ccc(Cl)cc2)n(-c2cccc(C(=O)NCCCCn3nccn3)c2)n1
pIC50 (MGC-803): 6.14 | pIC50 (MKN-45 [1]): 6.48

CCc1ccc(-c2nc(CC)nn2-c2cccc(C(=O)NCCCCn3nccn3)c2)cc1
pIC50 (MGC-803): 6.00 | pIC50 (MKN-45 [1]): 6.40

CCc1nc(-c2ccc(OC(F)(F)F)cc2)n(-c2cccc(C(=O)NCCCCn3nccn3)c2)n1
pIC50 (MGC-803): 5.41 | pIC50 (MKN-45 [1]): 5.29

CCc1nc(-c2ccc([N+](=O)[O-])cc2)n(-c2cccc(C(=O)NCCCCn3nccn3)c2)n1
pIC50 (MGC-803): 5.26 | pIC50 (MKN-45 [1]): 6.06

CCc1nc(-c2ccc(OC)cc2)n(-c2cccc(C(=O)NCCCCn3ccnn3)c2)n1
pIC50 (MGC-803): < 5.00 | pIC50 (MKN-45 [1]): < 5.00

CCc1nc(-c2ccc(OC)cc2)n(-c2cccc(C(=O)NCCCCn3cccn3)c2)n1
pIC50 (MGC-803): 6.12 | pIC50 (MKN-45 [1]): 6.27 | solubility [3]: 1120 µM (≈ 499 µg/mL) | solubility [4]: 393 µM (≈ 175 µg/mL) | solubility [5]: 352 µM (≈ 156 µg/mL)

CCc1nc(-c2ccc(F)cc2)n(-c2cccc(C(=O)NCCCCn3nccn3)c2)n1
pIC50 (MGC-803): 5.86 | pIC50 (MKN-45 [1]): 6.52

CCc1nc(-c2ccc(O)cc2)n(-c2cccc(C(=O)NCCCCn3nccn3)c2)n1
pIC50 (MGC-803): 6.03 | pIC50 (MKN-45 [1]): 6.31

CCc1nc(-c2ccccc2OC)n(-c2cccc(C(=O)NCCCCn3nccn3)c2)n1
pIC50 (MGC-803): 5.08 | pIC50 (MKN-45 [1]): 5.59

CCc1nc(-c2ccc(OC)cc2)n(-c2cccc(C(=O)NCCCCn3ncc(Br)n3)c2)n1
pIC50 (MGC-803): 6.57 | pIC50 (MKN-45 [1]): 6.59 | solubility [3]: 21.4 µM (≈ 11.2 µg/mL) | solubility [4]: < 1.6 µM | solubility [5]: < 1.6 µM

CCc1nc(-c2ccc(OC)cc2)n(-c2cccc(C(=O)NCCn3nccn3)c2)n1
pIC50 (MGC-803): < 5.00 | pIC50 (MKN-45 [1]): < 5.00

COc1ccccc1N1C(=O)CSC1c1cccc(C(=O)NCCCCc2ccccc2)c1 (stereo not drawn)
pKd (Myoferlin): 5.88

CCc1nc(-c2ncc(OC)cn2)n(-c2cccc(C(=O)NCCCCc3ccccc3)c2)n1
pIC50 (MGC-803): 6.60 | pIC50 (MKN-45 [1]): 6.39 | solubility [3]: 1.7 µM (≈ 0.776 µg/mL) | solubility [4]: < 1.6 µM | solubility [5]: < 1.6 µM | inhibition in vivo at 30 mg/kg/day (MKN-45 [6]): 52.2%

CCc1nc(-c2ccc(C)cc2)n(-c2cccc(C(=O)NCCCCn3nccn3)c2)n1
pIC50 (MGC-803): 6.22 | pIC50 (MKN-45 [1]): 6.52

CCc1nc(-c2ccc(OC)cc2)n(-c2cccc(C(=O)NCCCCn3ncnn3)c2)n1
pIC50 (MGC-803): 6.24 | pIC50 (MKN-45 [1]): 5.54 | solubility [3]: 877 µM (≈ 392 µg/mL) | solubility [4]: 194 µM (≈ 86.7 µg/mL) | solubility [5]: 186 µM (≈ 83.1 µg/mL)
